Results taken from patent US6235284A, “Synthetic polypeptides belonging to the hepatitis C virus (HCV) and which can be used especially for detecting the latter” (Bio Merieux, priority 1992, dated 2001).

Experiments:
[1] = test system: anti-HCV antibodies (HCV-positive sera); experiment: ELISA detection of anti-HCV antibodies in HCV-positive sera with adsorbed peptides; assay type: binding, human
Method: The reactivity of these three peptides towards the sera of individuals infected with the hepatitis C virus, termed (HCV) positive, was evaluated in an ELISA test according to the procedure described below.
Detection of anti-HCV Antibodies by ELISA
The wells of a microtiter plate of "NUNC MAXISORB™" trademark are saturated with 100 μl of a solution containing the peptide or a mixture of peptides (10 μg/ml) for 2 hours at 37° C. The plate is then emptied, then washed with a wash buffer containing 0.05% TWEEN™ 20(polysorbate 20). The wells are saturated with 100 μl of wash buffer supplemented with 10% goat serum (v/v), then incubated for 30 minutes at 37° C., then washed again as above. The sera to be analyzed are diluted to the appropriate dilution with saturation buffer. The incubation of the sera is 1 hour at 37° C. The wells are again washed. The solution of conjugate (goat IgG to human IgG labelled with peroxidase) at a dilution of 1/1000 in the saturation buffer is then added and the incubation lasts for 90 minutes at 37° C. After washing, the solution of orthophenylenediamine substrate is added. After 10 minutes, the reaction is stopped with 50 μl of H2 SO4 and the optical density is read at 492 nm. It should be noted that all the tests were carried out in duplicate.
For that, the different peptides are adsorbed on the microplates at a concentration of 10 μg/ml and the sera are used at 1/100 dilution.
The values obtained, which are collated in Table 1 below, correspond to the optical density (OD) multiplied by 10^3, at 492 nm.
For each serum the experiment was carried out in duplicate. The **** are values outside the upper scale.
The different peptides are absorbed onto microplates at a concentration of 10 μg/ml and the sera are used at the dilution stated.
The values obtained, which are collated in Table 2 below, correspond to the optical density at 492 nm. All the experiments were carried out in duplicate.
Each serum was, in a first instance, tested at the dilution 1/100.
The values given correspond to the optical density read at 492 nm multiplied by the factor 10^3.

[2] = test system: anti-HCV antibodies binding onto peptide S42G; experiment: Inhibition test: inhibition of binding of anti-HCV antibodies onto peptide S42G by preincubation with peptides; set-up: species or system human; details: inhibitor 0.1 mg/ml
Method: To evaluate this hypothesis, inhibition tests, whose usefulness lies in the fact that they allow the formation of the antigen-antibody complex in liquid medium, were carried out, thus dispensing with possible artifacts linked to the adsorption of peptides onto a solid support.
The inhibition experiments were carried out by reaction, in liquid phase, of the HCV sera with the peptides followed by reaction of the remaining antibodies with the peptide adsorbed onto the microplates. The inhibitory peptides are incubated at a concentration of 0.1 mg/ml with sera of appropriate dilution. The rest of the manipulation is identical to that described for the ELISA test.
Peptide S18D (SEQ ID NO:11), or V22G (SEQ ID NO:12), or a mixture of both, is preincubated overnight in the presence of the serum to be tested. The antibodies can bind onto the corresponding sites.

S18D: a peptide of 20 amino acids covering sequence 2 to 21 of the CORE protein (STNPKPQRKTKRNTNRRPQD)
optical density at 492 nm ([1]; Table 2, line 68, serum not named (below CTS), 1/100): 2.500 OD
optical density at 492 nm ([1]; Table 2, line 69, serum not named (below CTS), 1/1000): 2.500 OD
optical density at 492 nm ([1]; Table 2, line 70, serum not named (below CTS), 1/10000): 0.347 OD
optical density at 492 nm ([1]; Table 2, line 75, serum B4, 1/1000): 1.250 OD
optical density at 492 nm ([1]; Table 2, line 76, serum B4, 1/1000 (so in the source)): 0.171 OD
optical density at 492 nm ([1]; Table 2, serum B1, 1/100): 1.859 OD
optical density at 492 nm ([1]; Table 2, serum B2, 1/100): 1.781 OD
optical density at 492 nm ([1]; Table 2, serum B3, 1/100): 1.244 OD
optical density at 492 nm ([1]; Table 2, serum B4, 1/100): 2.500 OD
optical density at 492 nm ([1]; Table 2, serum B5, 1/100): 2.032 OD
optical density at 492 nm ([1]; Table 2, serum B6, 1/100): 2.500 OD
optical density at 492 nm ([1]; Table 2, serum B7, 1/100): 2.500 OD
optical density at 492 nm ([1]; Table 2, serum B8, 1/100): 1.362 OD
optical density at 492 nm ([1]; Table 2, serum B9, 1/100): 0.808 OD
optical density at 492 nm ([1]; Table 2, serum B10, 1/100): 0.099 OD
optical density at 492 nm ([1]; Table 2, serum B11, 1/100): 2.324 OD
optical density at 492 nm ([1]; Table 2, serum B12, 1/100): 1.375 OD
optical density at 492 nm ([1]; Table 2, serum B13, 1/100): 0.370 OD
optical density at 492 nm ([1]; Table 2, serum B14, 1/100): 0.072 OD
optical density at 492 nm ([1]; Table 2, serum B15, 1/100): 0.090 OD
optical density at 492 nm ([1]; Table 2, serum B16, 1/100): 2.500 OD
optical density at 492 nm ([1]; Table 2, serum CTS, 1/100): 2.500 OD
optical density at 492 nm ([1]; Table 2, serum CTS, 1/1000): 2.500 OD
optical density at 492 nm ([1]; Table 2, serum CTS, 1/10000): 0.295 OD
optical density at 492 nm ([1]; Table 2, serum P1, 1/100): 0.012 OD
optical density at 492 nm ([1]; Table 2, serum P2, 1/100): 0.020 OD
optical density at 492 nm ([1]; Table 2, serum P3, 1/100): 0.162 OD
optical density at 492 nm ([1]; Table 2, serum P4, 1/100): 0.982 OD
optical density at 492 nm ([1]; Table 2, serum P5, 1/100): 2.500 OD
optical density at 492 nm ([1]; Table 2, serum P5, 1/1000): 2.317 OD
optical density at 492 nm ([1]; Table 2, serum P5, 1/10000): 0.399 OD
optical density at 492 nm ([1]; Table 2, serum P6, 1/100): 0.007 OD
optical density at 492 nm ([1]; Table 2, serum P7, 1/100): 2.500 OD
optical density at 492 nm ([1]; Table 2, serum P7, 1/1000): 0.854 OD
optical density at 492 nm ([1]; Table 2, serum P7, 1/10000): 0.165 OD
optical density at 492 nm ([1]; Table 2, serum P8, 1/100): 2.500 OD
optical density at 492 nm ([1]; Table 2, serum P8, 1/1000): 2.500 OD
optical density at 492 nm ([1]; Table 2, serum P8, 1/10000): 0.681 OD
optical density at 492 nm ([1]; Table 2, serum P9, 1/100): 0.019 OD
optical density at 492 nm ([1]; Table 2, serum P10, 1/100): 0.028 OD
optical density at 492 nm ([1]; Table 2, serum P11, 1/100): 0.383 OD
optical density at 492 nm ([1]; Table 2, serum P12, 1/100): 2.500 OD
optical density at 492 nm ([1]; Table 2, serum P12, 1/1000): 2.500 OD
optical density at 492 nm ([1]; Table 2, serum P12, 1/10000): 0.454 OD
optical density at 492 nm ([1]; Table 2, serum P13, 1/100): 0.012 OD
optical density at 492 nm ([1]; Table 2, serum P14, 1/100): 0.907 OD
optical density at 492 nm ([1]; Table 2, serum P15, 1/100): 2.500 OD
optical density at 492 nm ([1]; Table 2, serum P16, 1/100): 0.225 OD
optical density at 492 nm ([1]; Table 2, serum P17, 1/100): 0.297 OD
optical density at 492 nm ([1]; Table 2, serum P18, 1/100): 2.500 OD
optical density at 492 nm ([1]; Table 2, serum P18, 1/1000): 0.297 OD
optical density at 492 nm ([1]; Table 2, serum P18, 1/10000): 0.095 OD
optical density at 492 nm ([1]; Table 2, serum P19, 1/100): 0.011 OD
optical density at 492 nm ([1]; Table 2, serum P20, 1/100): 1.433 OD
optical density at 492 nm ([1]; Table 2, serum P21, 1/100): 0.111 OD
optical density at 492 nm ([1]; Table 2, serum P22, 1/100): 2.500 OD
optical density at 492 nm ([1]; Table 2, serum P22, 1/1000): 1.142 OD
optical density at 492 nm ([1]; Table 2, serum P22, 1/10000): 0.146 OD
optical density at 492 nm ([1]; Table 2, serum P23, 1/100): 0.015 OD
optical density at 492 nm ([1]; Table 2, serum P24, 1/100): 0.015 OD
optical density at 492 nm ([1]; Table 2, serum P25, 1/100): 2.500 OD
optical density at 492 nm ([1]; Table 2, serum P25, 1/1000): 2.199 OD
optical density at 492 nm ([1]; Table 2, serum P25, 1/10000): 0.329 OD
optical density at 492 nm ([1]; Table 2, serum P26, 1/100): 2.500 OD
optical density at 492 nm ([1]; Table 2, serum P26, 1/1000): 2.500 OD
optical density at 492 nm ([1]; Table 2, serum P26, 1/10000): 0.957 OD
optical density at 492 nm ([1]; Table 2, serum P27, 1/100): 1.425 OD
optical density at 492 nm ([1]; Table 2, serum P28, 1/100): 0.115 OD
optical density at 492 nm ([1]; Table 2, serum P29, 1/100): 0.000 OD
optical density at 492 nm ([1]; Table 2, serum P30, 1/100): 0.483 OD
optical density at 492 nm ([1]; Table 2, serum P31, 1/100): 2.500 OD
optical density at 492 nm ([1]; Table 2, serum P31, 1/1000): 1.975 OD
optical density at 492 nm ([1]; Table 2, serum P31, 1/10000): 0.183 OD
optical density at 492 nm ([1]; Table 2, serum P32, 1/100): 1.046 OD
optical density at 492 nm ([1]; Table 2, serum P33, 1/100): 1.307 OD
optical density at 492 nm ([1]; Table 2, serum P34, 1/100): 2.500 OD
optical density at 492 nm ([1]; Table 2, serum P35, 1/100): 2.500 OD
optical density at 492 nm ([1]; Table 2, serum P36, 1/100): 0.115 OD
optical density at 492 nm ([1]; Table 2, serum P37, 1/100): 2.500 OD
optical density at 492 nm ([1]; Table 2, serum P37, 1/1000): 0.523 OD
optical density at 492 nm ([1]; Table 2, serum P37, 1/10000): 0.102 OD
optical density at 492 nm ([1]; Table 2, serum P38, 1/100): 2.500 OD
optical density at 492 nm ([1]; Table 2, serum P38, 1/1000): 0.753 OD
optical density at 492 nm ([1]; Table 2, serum P38, 1/10000): 0.099 OD
optical density at 492 nm ([1]; Table 2, serum P39, 1/100): 2.500 OD
optical density at 492 nm ([1]; Table 2, serum P40, 1/100): 2.500 OD
optical density at 492 nm ([1]; Table 2, serum P41, 1/100): 1.579 OD
optical density at 492 nm ([1]; Table 2, serum P42, 1/100): 0.000 OD
reactivity towards HCV-positive sera ([1]; in words): react
inhibition ([2]; serum B4, 1/10,000): 16.8%
inhibition ([2]; serum P5, 1/10,000): 3.5%
inhibition ([2]; serum P7, 1/10,000): 8.4%
inhibition ([2]; serum P8, 1/10,000): 1.4%
inhibition ([2]; serum P18, 1/10,000): 10.6%
inhibition ([2]; serum P22, 1/10,000): 6.6%
inhibition ([2]; serum P25, 1/10,000): 14.1%
inhibition ([2]; serum P31, 1/10,000): 2.0%
inhibition ([2]; serum P37, 1/10,000): 43.6%
inhibition ([2]; serum P38, 1/10,000): 8.9%
